What was measured:
[1] = target: T1, α1G T-type calcium channel (Homo sapiens, UniProt O43497); experiment: Assay for % inhibiting activity against T-type calcium channel using FDSS6000 (fluo-3 calcium imaging, KCl activation); type: cell-based; conditions: 10 μM; HEK293 cells stably expressing α1G T-type calcium channel and Kir2.1; compounds of the examples
T1 construct: host or cells: HEK293
How it was run: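 HEK293 cells stably expressing α1G and Kir2.1 loaded with 5 μM fluo-3/AM, then in HEPES buffer (pH 7.4) with 10 mM CaCl2. Compound applied 75 s before 75 mM KCl; intracellular Ca2+ read as […] area, % inhibition relative to untreated control.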

[2] = target: T1, α1G T-type calcium channel; experiment: Electrophysiological whole cell patch clamp measurement of T-type calcium channel current in HEK293 cells; type: cell-based; conditions: HEK293 cells expressing α1G; for HEK293cell (% Inhibition) 10 μM: inhibition of peak current; for IC50: read-out: IC50 (a1G)
Description: In the present invention, in order to examine an efficient inhibitor against the T-type calcium channel, a primary assay for T-type calcium channel inhibiting activity was conducted by a high-efficient assay using FDSS6000, wherein mammal HEK293 cell lines (originated from human kidney carcinoma cells) that specifically express α1G of the T-type calcium channel was used for primary assay. Through the primary assay, compounds that show meaningful inhibition effects were selected. The selected compounds were used in a second assay for T-type calcium channel inhibiting activity using an electrophysiological whole cell patch clamp method, wherein mammal HEK293 cell lines (originated from human kidney carcinoma cells) that specifically express α1G of the T-type calcium channel was used for the second assay. Mibefradil, which had been developed as a T-type calcium channel inhibitor, was used as a reference.
10% Fetal bovine serum (FBS) and 1% penicillin/streptomycin (v/v) were added to Dulbecco's modified Eagle's medium (DMEM), to be used as a media solution. The cells were cultured in an incubator under a wet condition of 95% air/5% CO2 and a temperature of 36.5° C. The media solution was refreshed every 3 or 4 days, and the cells were sub-cultured every week. Only the cells that expressed α1G T-type calcium channel were cultured using a G-418 (0.5 mg/ml) solution. The recording of the cells used in the T-type calcium channel activity analysis was conducted at 2-7 days after the cells were culturing on a cover slip coated with poly-L-lysine (0.5 mg/ml) when conducting every sub-culture. For analysis at a single cell level, the T-type calcium channel current was measured by an electrophysiological whole cell patch clamp method using EPC-9 amplifier (HEKA, German).
As solutions for analyzing T-type calcium channel activity, a solution including NaCl 140 mM, CaCl2 2 mM, and HEPES10 mM (pH 7.4, Sigma; 4-(2-hydroxyethyl)piperazine-1-ethanesulfonic acid) was used as an extracellular solution, and a solution including KCl 130 mM, HEPES 10 mM (Sigma), EGTA 11 mM (ethylene glycol-bis(2-aminoethylether)-N,N,N′,N′-tetraacetic acid, Sigma), and MgATP 5 mM (pH 7.4, Sigma) was used as an intracellular solution. The protocol for T-type calcium channel activity that is activated at low voltage is as follows. A micro-glass electrode with resistance of 3-4 MΩ wherein the above-prepared intracellular solution was filled was pricked into a single cell, to make a whole-cell recording mode. Thereafter, the cell membrane potential was fixed to −100 mV, and then the inward current due to the T-type calcium channel activity when hypopolarizing to −30 mV (50 ms duration) was measured every 10 seconds.
Each compound to be tested was dissolved in 100% dimethylsulfoxide (DMSO) to make a 10 mM stock solution. The effect of the compound on the T-type calcium channel current compound was initially examined in the stock solution with the 1000-times diluted concentration of 10 μM (containing 0.1% DMSO) and then examined in the solution with the concentration for IC50 measurement (mostly 0.1 to 100 μM), to obtain an IC50 value. More specifically, the cells were treated in each compound together with the extracellular solution for 30 to 60 seconds, and the inhibition level of peak current induced by the compound was calculated as a percentage, to obtain the % inhibition value as shown in Table 4.

T1 sequence (O43497 whole entry): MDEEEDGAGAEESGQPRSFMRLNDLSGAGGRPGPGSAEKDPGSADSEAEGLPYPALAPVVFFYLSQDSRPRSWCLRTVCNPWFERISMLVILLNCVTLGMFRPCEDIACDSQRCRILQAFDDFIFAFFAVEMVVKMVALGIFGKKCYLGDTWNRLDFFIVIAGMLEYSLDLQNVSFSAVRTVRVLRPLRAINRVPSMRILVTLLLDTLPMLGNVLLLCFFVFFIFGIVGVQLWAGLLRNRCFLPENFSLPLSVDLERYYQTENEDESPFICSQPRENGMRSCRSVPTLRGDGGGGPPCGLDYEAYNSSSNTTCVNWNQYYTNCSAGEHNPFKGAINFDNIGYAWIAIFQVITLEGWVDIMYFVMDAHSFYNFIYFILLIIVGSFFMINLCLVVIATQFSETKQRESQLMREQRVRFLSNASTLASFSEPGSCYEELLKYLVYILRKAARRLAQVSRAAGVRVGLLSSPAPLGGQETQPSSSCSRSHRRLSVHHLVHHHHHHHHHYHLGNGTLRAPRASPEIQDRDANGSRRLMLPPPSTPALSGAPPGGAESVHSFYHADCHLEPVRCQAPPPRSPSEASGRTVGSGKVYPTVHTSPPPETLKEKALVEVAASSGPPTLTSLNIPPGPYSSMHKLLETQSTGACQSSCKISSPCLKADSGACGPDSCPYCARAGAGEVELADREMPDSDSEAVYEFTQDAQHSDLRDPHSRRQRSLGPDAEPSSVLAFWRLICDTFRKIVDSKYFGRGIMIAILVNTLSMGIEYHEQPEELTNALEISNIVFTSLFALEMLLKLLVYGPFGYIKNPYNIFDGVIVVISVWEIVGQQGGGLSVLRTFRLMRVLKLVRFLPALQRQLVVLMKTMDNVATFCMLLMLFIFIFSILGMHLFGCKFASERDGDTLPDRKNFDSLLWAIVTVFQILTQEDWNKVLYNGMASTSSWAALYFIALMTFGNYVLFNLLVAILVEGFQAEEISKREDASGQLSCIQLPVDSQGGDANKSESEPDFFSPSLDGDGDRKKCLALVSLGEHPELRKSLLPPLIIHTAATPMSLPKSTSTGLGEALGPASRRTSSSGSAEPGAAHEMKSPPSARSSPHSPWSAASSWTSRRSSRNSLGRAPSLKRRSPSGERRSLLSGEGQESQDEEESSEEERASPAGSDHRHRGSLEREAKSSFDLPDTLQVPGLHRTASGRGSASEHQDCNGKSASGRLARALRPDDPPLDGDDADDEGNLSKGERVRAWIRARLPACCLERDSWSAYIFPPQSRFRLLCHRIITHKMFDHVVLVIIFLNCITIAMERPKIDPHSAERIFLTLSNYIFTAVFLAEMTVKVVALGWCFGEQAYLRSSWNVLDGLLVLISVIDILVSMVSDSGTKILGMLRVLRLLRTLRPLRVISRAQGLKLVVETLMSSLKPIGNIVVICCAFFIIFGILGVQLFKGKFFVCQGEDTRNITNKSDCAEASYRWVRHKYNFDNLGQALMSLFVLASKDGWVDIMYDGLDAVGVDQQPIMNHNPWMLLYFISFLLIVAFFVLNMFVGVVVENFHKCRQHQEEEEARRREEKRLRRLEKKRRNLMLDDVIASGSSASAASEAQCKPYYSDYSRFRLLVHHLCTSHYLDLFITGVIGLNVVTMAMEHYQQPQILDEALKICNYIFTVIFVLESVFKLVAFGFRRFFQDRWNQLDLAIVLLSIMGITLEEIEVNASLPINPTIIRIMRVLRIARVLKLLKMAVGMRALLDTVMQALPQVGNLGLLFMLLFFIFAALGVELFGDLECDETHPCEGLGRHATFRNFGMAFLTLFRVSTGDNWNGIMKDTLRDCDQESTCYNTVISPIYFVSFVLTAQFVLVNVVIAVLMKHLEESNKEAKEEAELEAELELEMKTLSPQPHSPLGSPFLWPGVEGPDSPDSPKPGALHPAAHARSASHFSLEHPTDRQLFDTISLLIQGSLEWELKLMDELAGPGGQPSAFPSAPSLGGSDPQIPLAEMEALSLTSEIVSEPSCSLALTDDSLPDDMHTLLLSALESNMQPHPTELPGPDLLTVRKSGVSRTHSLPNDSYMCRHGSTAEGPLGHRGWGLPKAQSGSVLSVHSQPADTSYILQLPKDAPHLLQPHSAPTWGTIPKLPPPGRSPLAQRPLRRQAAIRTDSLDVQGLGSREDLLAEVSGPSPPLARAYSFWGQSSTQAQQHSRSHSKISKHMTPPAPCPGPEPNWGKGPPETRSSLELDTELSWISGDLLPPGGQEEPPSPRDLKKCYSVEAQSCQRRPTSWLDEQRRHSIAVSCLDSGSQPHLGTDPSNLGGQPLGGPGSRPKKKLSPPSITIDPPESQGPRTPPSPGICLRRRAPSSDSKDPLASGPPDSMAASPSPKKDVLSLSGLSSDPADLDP

Substance	FDSS (% inhibition)/10uM [1]	HEK293cell (% Inhibition) 10 μM [2]	IC50 [2]
(2-cyclohexylimino-3-methyl-1,3-thiazolidine-4-yl)-N-(3-trifluoromethylphenyl)-acetamide hydrochloride [KHG24084]	58.61%	82.2 ± 1.4%	2.79 ± 0.11 µM
(2-cyclohexylimino-3-methyl-1,3-thiazolidine-4-yl)-N-(4-bromophenyl)-acetamide hydrochloride [KHG23354]	54.26%	83.0 ± 1.4%	2.47 ± 0.18 µM
(2-cyclohexylimino-3-methyl-1,3-thiazolidine-4-yl)-N-(4-chloro-2-fluorophenyl)-acetamide hydrochloride [KHG23361]	62.4%	71.4 ± 3.4%	4.09 ± 0.7 µM
(2-cyclohexylimino-3-methyl-1,3-thiazolidine-4-yl)-N-(4-chlorobenzyl)-acetamide hydrochloride [KHG24113]	54.13%	64.8 ± 1.4%	5.4 ± 0.41 µM
(2-cyclohexylimino-3-methyl-1,3-thiazolidine-4-yl)-N-(4-chlorophenyl)-acetamide hydrochloride [KHG23362]	66.17%	89.3 ± 0.9%	0.53 ± 0.03 µM
(2-cyclohexylimino-3-methyl-1,3-thiazolidine-4-yl)-N-(4-fluorophenyl)-acetamide hydrochloride [KHG23210]	46.69%	59.6 ± 1.5%	6.5 ± 0.5 µM
(2-cyclohexylimino-3-methyl-1,3-thiazolidine-4-yl)-N-(4-isopropylphenyl)-acetamide hydrochloride [KHG23364]	53%	97.0 ± 0.7%	0.87 ± 0.18 µM
(2-cyclohexylimino-3-methyl-1,3-thiazolidine-4-yl)-N-(4-methylphenyl)-acetamide hydrochloride [KHG24077]	46.41%	57.0 ± 1.5%	7.22 ± 0.36 µM
(2-cyclohexylimino-3-methyl-1,3-thiazolidine-4-yl)-N-(4-n-butylphenyl)-acetamide hydrochloride [KHG23365]	60.16%	97.6 ± 0.5%	0.6 ± 0.06 µM
(2-cyclohexylimino-3-methyl-1,3-thiazolidine-4-yl)-N-(4-phenoxyphenyl)-acetamide hydrochloride [KHG23355]	58.95%	88.1 ± 2.0%	1.51 ± 0.17 µM
(2-cyclohexylimino-3-methyl-1,3-thiazolidine-4-yl)-N-(4-trifluoromethylphenyl)-acetamide hydrochloride [KHG24074]	65.2%	94.7 ± 0.5%	0.66 ± 0.06 µM
[2-(1-adamantyl)imino-3-methyl-1,3-thiazolidine-4-yl]-N-(3,5-ditrifluoromethylphenyl)-acetamide hydrochloride [KHG24241]	70.68%	92.2 ± 0.5%	0.17 ± 0.02 µM
[2-(1-adamantyl)imino-3-methyl-1,3-thiazolidine-4-yl]-N-(4-bromophenyl)-acetamide hydrochloride [KHG24239]	69.55%	96.5 ± 1.3%	0.61 ± 0.07 µM
[2-(1-adamantyl)imino-3-methyl-1,3-thiazolidine-4-yl]-N-(4-chlorophenyl)-acetamide hydrochloride [KHG24238]	73.31%	95.9 ± 1.8%	0.53 ± 0.02 µM
[2-(1-adamantyl)imino-3-methyl-1,3-thiazolidine-4-yl]-N-(4-ethylphenyl)-acetamide hydrochloride [KHG24236]	69.55%	94.4 ± 0.6%	0.23 ± 0.02 µM
[2-(1-adamantyl)imino-3-methyl-1,3-thiazolidine-4-yl]-N-(4-fluorophenyl)-acetamide hydrochloride [KHG24237]	74.81%	91.2 ± 3.1%	0.77 ± 0.03 µM
[2-(1-adamantyl)imino-3-methyl-1,3-thiazolidine-4-yl]-N-(4-isopropylphenyl)-acetamide hydrochloride [KHG24243]	60.9%	97.0 ± 1.1%	0.05 ± 0.01 µM
[2-(1-adamantyl)imino-3-methyl-1,3-thiazolidine-4-yl]-N-(4-methylphenyl)-acetamide hydrochloride [KHG24235]	61.65%	93.2 ± 1.9%	1.17 ± 0.08 µM
[2-(1-adamantyl)imino-3-methyl-1,3-thiazolidine-4-yl]-N-(4-phenoxyphenyl)-acetamide hydrochloride [KHG24244]	53.67%	90.6 ± 3.6%	0.92 ± 0.08 µM
[2-(1-adamantyl)imino-3-methyl-1,3-thiazolidine-4-yl]-N-(4-trifluoromethylphenyl)-acetamide hydrochloride [KHG24240]	70.68%	96.2 ± 1.1%	0.23 ± 0.02 µM
[2-(1-adamantyl)imino-3-methyl-1,3-thiazolidine-4-yl]-N-(5-chloro-2-fluorophenyl)-acetamide hydrochloride [KHG24242]	53.38%	85.2 ± 1.3%	0.97 ± 0.14 µM
[2-(1-adamantylimino)-3-cyclopropyl-1,3-thiazolidine-4-yl]-N-(4-isopropylphenyl)-acetamide hydrochloride [KHG24788]	72.88%	95.3 ± 0.4%	0.31 ± 0.02 µM
[2-(1-adamantylimino)-3-cyclopropyl-1,3-thiazolidine-4-yl]-N-(4-n-butylphenyl)-acetamide hydrochloride [KHG24789]	78.21%	95.1 ± 0.7%	0.19 ± 0.02 µM
[2-(1-adamantylimino)-3-cyclopropyl-1,3-thiazolidine-4-yl]-N-(4-phenoxyphenyl)-acetamide hydrochloride [KHG24800]	83.5%	95.4 ± 0.5%	0.43 ± 0.07 µM

From patent US7998989B2, “2-Imino-1,3-thiazoline-based compounds and T-type calcium channel inhibitors containing the same” (Korea Institute of Science and Technology, priority 2007, dated 2011)
